Assay results from patent publication US20080193576A1, “Antiphlogistic and analgesic composition for topical use in a region of an animal locomotive system” (priority 2007, published 2008).

Assay: tests of the topical composition carried out on persons
Format: in vivo
Settings: compared as hydrogel-soluble NSAID component at about 2-10% of the composition

Q: For `COC(=O)c1ccccc1O` [methyl salicylate], which “efficacy of the non-steroidal anti-inflammatory agent within the inventive composition” value is on record?
A: most efficacious
